Data as given in a melting point compilation (Tetko et al.; mined from patent text by program, amines drawn as free bases though some values may be those of a salt).

Row | SMILES | melting point [°C]
1 | O=C(c1ccc(Cl)cc1)C(O)c1ccc(Cl)cc1 (centres undefined) | 73
2 | Cc1c(Cc2ccc(C(C)C)cc2)c2c(c(C)c1NC(=O)CC(C)(C)C)C(C)(O)C(C)(C)O2 (centres undefined) | 170 to 171
3 | C[C@H](Cc1ccc(-c2cc(F)cc(F)c2)cc1)c1ccccc1 | 49.8 to 51.3
4 | O=C(NCCCCCCCCCCCCOC(=O)Oc1ccc([N+](=O)[O-])cc1)OC1CCN(C(=O)Oc2ccc(Oc3ccccc3)cc2)CC1 | 96 to 98
5 | CCCCOc1cc(-c2cc3ccccc3[nH]2)ccc1OCC | 139
6 | CNC(=O)N(N)c1nnc(C(C)(C)C)s1 | 141 to 142
7 | Cc1[nH]n(C2CCOC2)c2nc(-c3ccncc3)nc(=O)c1-2 (centres undefined) | 251
8 | CS(=O)(=O)Nc1cccc(Nc2nc(NCC3CCCCN3)c3nc[nH]c3n2)c1 (centres undefined) | 147 to 150
9 | O=C(c1ccn2c1CSC2c1cccnc1)c1c[nH]c2cc(Cl)ccc12 (centres undefined) | 263 to 265
10 | CCNC(=O)c1cc(Cl)ccc1Br | 98 to 99
11 | O=P(O)(O)C(O)(Cc1c(Cl)cccc1Cl)P(=O)(O)O | 226 to 228
12 | O=C1c2ccccc2N=C(c2ccccc2)C1O (centres undefined) | 260 to 262
13 | COn1c(Br)c(C#N)c(Br)c1-c1ccc(Cl)cc1 | 195 to 197
14 | CC1(C)Nc2cc(Cl)ccc2NC1=O | 166 to 170
15 | COCOCc1c([N+](=O)[O-])cc(OC)c(OC)c1OC | 39 to 40
16 | CCc1cc2c(ccc(=O)n2Cc2ccc(-c3ccccc3C(=O)O)cc2)c(CC)n1 | 238 to 240
17 | Cc1cc(OCc2cnc(-c3ccc(C(F)(F)F)nc3)nc2C2CC2)ccc1OC(C)(C)C(=O)O | 185 to 186
18 | CCOCc1nc2c(N)nc3cc(OCc4ccccc4)ccc3c2n1CC(C)(C)O | 215 to 216
19 | CCCCCCCCCCCCCCCCCC(=O)Oc1ccc2c(c1)C(=O)c1ccc(OC(=O)CCCCCCCCCCCCCCCCC)cc1C2=O | 129 to 132
20 | CCCCCCCCC(SCCCCCC)C(=O)Nc1c(SC)cc(NC(C)=O)c2ncc(C)cc12 (centres undefined) | 128 to 131

Row | SMILES | melting point [°C]
21 | CCN1CCCC1CNC(=O)c1c(Br)c(Br)c([N+](=O)[O-])c2c1OCCO2 (centres undefined) | 213
22 | O=C1C(=Cc2ccc(Cl)cc2)CCCC1=Cc1ccc(Cl)cc1 | 142 to 144
23 | CC(C)(C)NC(=O)NC(C)(C)C | 246
24 | CC(=O)NC[C@H]1CN(c2ccc(N3CCC(F)(CN)CC3)c(F)c2)C(=O)O1 | 152 to 155
25 | C=CCC(C)(C)C(=O)O[C@H]1C[C@H](O)C=C2C=C[C@H](C)[C@H](CCC3CC(O)CC(=O)O3)[C@H]21 (some centres undefined) | 141 to 142
26 | CS(=O)(=O)c1ccc(Oc2ccc(Br)cc2)cc1 | 128 to 129
27 | CCCOc1ccc(S(=O)(=O)NCc2ccncc2)cc1-c1nc2cc(N)c(N)cc2c(=O)[nH]1 | 157 to 160
28 | Cc1cc(Cl)cc2c1OC(C)(C)C(/C=C/C=C/C=C/C(=O)O)=C2 | 190 to 192
29 | COc1cc([C@H]2CC[C@H](c3cc(OC)c(OC)c(OC)c3)S2)cc(OC)c1OC (relative stereo) | 133 to 134
30 | CS(=O)(=O)Nc1cc(NC(=O)CC(=O)C(F)(F)F)c(F)cc1C#N | 186 to 191
31 | CC1CCC2(C)C(=CCC3C2CCC2(C)C(C(=O)CN)CCC32)C1 (centres undefined) | 139
32 | COc1ccc(OC(=O)Cl)cc1C12CC3CC(CC(C3)C1)C2 | 87 to 89
33 | CN(C)C1(C#N)CCC(c2ccccc2)(N(C)C)CC1 (centres undefined) | 82 to 92
34 | CCn1c(=O)c2[nH]c(/C=C/c3ccc(OC)c(Br)c3)nc2n(CC)c1=O | > 280
35 | COc1ccc(C2=NN(c3cnc4ccccc4n3)C(=O)[C@H]3CC=CC[C@@H]23)cc1OC (relative stereo) | 154 to 156
36 | CC(C)C(C(=O)O)c1ccc(OC(F)F)cc1 (centres undefined) | 63
37 | CCC(=O)N(C(=O)CC)c1c(C#N)cnn1-c1ccc(Cl)c(Cl)c1Cl | 133 to 134
38 | CN1CCN(CCNc2ncnc3c2sc2nc(N4CCCC4)c4c(c23)CC(C)(C)OC4)CC1 | 97.5 to 98.8
39 | CC(C)=NNc1cc2c(nn1)CCN(C(=O)c1ccccc1F)C2 | 200 to 203
